Tests used:
Format in all cases: cell-based, human
[1] = tested on: PBMC from mite-allergic patient; test: primary T cell (PBMC) proliferation, mite-allergic patient, tritiated thymidine; conditions: medium 1071 ± 30
Method: Peripheral blood mononuclear cells (PBMC) were purified by Ficoll-Hypaque centrifugation of a peripheral blood specimen from mite-allergic patient and were assayed for proliferation in response to various antigens, i.e., affinity-purified Der p I, affinity purified Der p II, various Der p I and Der p II peptides. For assay, 5×10^4 PBMC were cultured in triplicate microwells for 7 days at 37° C. in the presence of various concentrations of antigen in 200 μl RPMI-1640 containing 5% human AB serum. Each well then received 1 μCi tritiated thymidine for 16 hours. The counts incorporated were collected onto glass fiber filters and processed for liquid scintillation counting. […] The CPM +/- standard deviation are shown. The stimulation index of each response (S.I.) is the ratio of the ^3 H-thymidine CPM incorporated by the cells in response to antigen divided by the ^3 H-thymidine CPM incorporated by cells in medium only. […] Thus, these peptides contain Der p I or Der p II T cell epitopes recognized by T cells from this particular allergic patient.

[2] = tested on: T cell lines primed in vitro to Der p I; test: secondary proliferation of Der p I-primed T cell lines (Examples V, VII, XI); conditions: overlapping Der p I peptides; 33 positive experiments
Method: 10^7 PBMC from individual 543 were cultured in 10 ml RPMI-1640 containing 5% pooled human AB serum and supplemented with glutamine, penicillin, streptomycin and HEPES buffer in the presence of 20 μg/ml purified native Der p I/ml at 37° C. for 7 days. Viable cells were then purified by Ficoll-Hypaque centrifugation and cultured for 2 additional weeks in RPMI-1640/5% AB serum containing 5 units recombinant human IL-2/ml and 5 units recombinant human IL-4/ml. The resting T cells were then tested in a secondary proliferation assay to assess T cell responses to various house dust mite proteins and peptides. For assay, 2×10^4 resting T cells were cultured in 200 μl of RPMI-1640/5% AB serum for 3 days at 37° C. in the presence of 2×10^4 autologous Epstein-Barr virus transformed B cells (20,000 Rads) as antigen presenting cells with various concentrations of purified native Der p I or synthetic Der p I peptides. Each well then received 1 μCi tritiated thymidine for 16 hours. The counts incorporated were collected onto glass fiber filters and processed for liquid scintillation counting. Medium alone, acting as negative control, contained no allergen or peptide. The results of this experiment indicate that this particular patient responds with an S.I. of at least 2.0 to several peptides derived from the Der p I protein, including DP I-1, DP I-2, DP I-4, DP I-11, DP I-5, DP I-13, DP I-15, DP I-6.1, DP I-8, DP I-9, DP I-16, DP I-10 and DP I-17 (data not shown).
The above procedure was followed with a number of other house dust mite allergic individuals except a) in individual cases, the length of time of cultivation with IL-2 and IL-4 varied; b) in individual cases, the T cells were primed with either purified native (N) or recombinant (R) Der p I protein at either 20 μg/ml or 10 μg/ml; and c) in individual cases, x-irradiated (3500 Rads) autologous PBMC were used as antigen presenting cells in the secondary proliferation assay.
Individual results were considered positive and used if the individual responded to the Der p I protein and at least one peptide derived from Der p I at an S.I. of 2.0 or greater. The resting T cell lines primed with recombinant or native Der p I-stimulated PBMC were tested for reactivity to synthetic Der p I peptides. The maximum response for each peptide in a titration of the antigen is expressed as the T cell stimulation index (S.I.). The S.I. is the counts-per-minute (CPM) incorporated by cells in response to the peptide divided by the CPM incorporated by cells in medium only. […] However, only individual S.I. values greater than or equal to 2.0 (a response two-fold or greater over background), referred to herein as "positive" results, were used in calculating mean T cell stimulation indices for each peptide for the patient or group of patients tested. […] The T cell stimulation index is calculated by: [formula]
The bar represents the cumulative rank of the peptide response in the group of patients. To determine the cumulative rank, the 5 peptides with the highest S.I. in each individual were determined and assigned a numerical rank in descending order, with 5 representing the strongest response. The ranks for each peptide were then summed in the group of patients to determine the cumulative rank for the peptide. […] Given the percent positive and the mean T cell stimulation index, the positivity index (P.I.) for each peptide can be calculated.
The Der p I and Der f I proteins are very homologous (81% identity). Thus, experiments, similar to those of Example V, were carried out to determine the T cell responses of Der p I primed T cell lines when challenged with various Der p I peptides and substantially matching […].
The results of T cell studies using selected peptides derived from the Der p I, the Der f I, the Der p II and the Der f II proteins are shown in FIGS. 13-18a-d. […]

[3] = tested on: T cell lines primed in vitro to Der f I; test: secondary proliferation of Der f I-primed T cell lines (Examples VI, VII, XI); conditions: Der f I primed; 8 positive experiments; FIG. 8
Method: Experiments similar to those of Example V were performed to determine. the T cell-reactive areas of the Der f I protein. For example, PBMC from house dust mite-allergic patient 783 were isolated as described in Example V and were stimulated in vitro-- with recombinant purified Der f I at 20 μg/ml. The results of the proliferation assay with Der f I peptides using x-irradiated (3500 Rads) autologous PBMC as antigen presenting cells indicate that T cells from this patient respond to the peptides DF I-8.1, DF I-9, DF I-6, DF I-10, DF I-2.1, DF I-3, DF I-11, DF I-5, DF I-1, and DF I-17 (data not shown).
The above procedure was followed in a number of patients except in individual cases, T cell lines were primed with affinity purified Der f I at 20 μg/ml or at 10 μg/ml and x-irradiated (25,000 Rads) autologous Epstein-Barr virus transformed B cells were used as antigen presenting cells. […]
Similarly, the procedure described in Example VI was followed with T cell lines from 9 patients primed in vitro to the Der f I protein then analyzed for response to selected peptides derived from the protein. The data was analyzed as described in Example VI. […]

[4] = tested on: T cell lines primed in vitro to Der p II; test: secondary proliferation of Der p II-primed T cell lines (Examples VIII, X, XI); conditions: for T cell reactivity: overlapping Der p II peptides, 26 positive experiments, FIG. 9; for T cell response: patient 348, native Der p II primed, data not shown
Method: Experiments similar to those of Example V were performed to determine the T cell-reactive areas of the Der p II protein. For example, PBMC from house dust mite-allergic patient 348 were isolated as described in Example V and were stimulated in vitro with 20 μg/ml purified native Der p II.
The above procedure was followed with a number of patients except in individual cases, T cell lines were primed with recombinant Der p II at 20 μg/ml or at 3 μg/ml and x-irradiated (3500 Rads) autologous PBMC were used as antigen-presenting cells. The data was analyzed as described in Example V, except the ranked sum of peptide responses was analyzed assigning a value of 3, 2 or 1 to the three highest S.I. responses.
A study similar to that described in Example VII was carried out to determine the T cell cross-reactivity of the Der p II and Der f II proteins. T cells primed with the Der f II protein were challenged with various Der f II peptides and a set of substantially matching Der p II peptides.
Another experiment following the procedure described in Example VIII analyzed the response of 29 patients primed in vitro to the Der p II protein and challenged with selected peptides derived from the Der p II sequence.

[5] = tested on: T cell lines primed in vitro with Der p II; test: T cell proliferation with fine map and modified Group II peptides (Example XIV); conditions: FIGS. 32a-b
Method: Long term T cell lines were established by stimulation of 2×10^6 PBL/ml in bulk cultures of complete medium (RPMI-1640, 2 mM L-glutamine, 100 U/ml penicillin/streptomycin, 5×10^-5 M 2-mercaptoethanol, and 10 mM HEPES supplemented with 5% heat inactivated human AB serum) with 30 μg/ml of purified native Der p I or Der p II for 5-6 days at 37° C. in a humidified 5% CO2 incubator to select for house dust mite protein allergen reactive T cells. This amount of priming antigen was determined to be optimal for the activation of T cells from house dust mite allergic patients. Viable cells were purified by LSM centrifugation and cultured in complete medium supplemented with 5 units recombinant human IL-2/ml and 5 units recombinant human IL-4/ml for up to three weeks until the cells no longer responded to lymphokines and were considered "rested". The ability of the T cells to proliferate to selected peptides, purified Der p I or Der p II, or positive (PHA) controls or negative controls (medium only) was then assessed. For assay, 2×10^4 rested cells were restimulated in the presence of 2×10^4 autologous Epstein-Barr virus (EBV)-transformed B cells (prepared as described below) (gamma-irradiated with 25,000 RADS) or with 5×10^4 autologous PBMs (gamma-irradiated with 3500 RADS), with 2-50 μg/ml of purified native Der p I or Der p II in a volume of 200 μl complete medium in duplicate or triplicate wells in 96-well round bottom plates for 3 days. Each well then received 1 μCi tritiated thymidine for 16-20 hours. The counts incorporated were collected onto glass fiber filter mats and processed for liquid scintillation counting. […] The titrations were used to optimize the dose of peptides in T cell assays.
The maximum response in a titration of each peptide is expressed as the stimulation index (S.I.). The S.I. is the counts per minute (CPM) incorporated by cells in response to peptide, divided by the CPM incorporated by cells in medium only. […] The positive results were used in calculating mean stimulation indices for each peptide for the individual patient tested.
The above procedure was followed with 18 patients in the studies using peptides derived from Der p I and Der f I (FIGS. 31a-b), and 21 patients in the studies with Der p II peptides (FIGS. 32a-b). Individual patient results were used in calculating the mean S.I. for each peptide if the patient responded to the Der p I or Der p II protein at an S.I. of 2.0 or greater and the patient responded to at least one peptide derived from a house dust mite allergen at an S.I. f 2.0 or greater. A summary of positive experiments from the patients tested is shown in FIGS. 32a and 32b and FIGS. 33a and 33b. The bars represent the positivity index. […] In parenthesis above each bar are the mean stimulation indices for each peptide or protein for the group of patients tested.
Autologous EBV-transformed cell lines were γ-irradiated with 25,000 Rad and used as antigen presenting cells in secondary proliferation assays and secondary bulk stimulations. These EBV-transformed cell lines were made by incubating 5×10^6 PBL with 1 ml of B-59/8 Marmoset cell line (ATCC CRL1612, American Type Culture Collection, Rockville, Md.) conditioned medium in the presence of 1 μg/ml phorbol 12-myristate 13-acetate (PMA) at 37° C. for 60 minutes in 12×75 mm polypropylene round-bottom Falcon snap cap tubes (Becton Dickinson Labware, Lincoln Park, N.J.). These cells were then diluted to 1.25×10^6 cells/ml in RPMI-1640 as described above except supplemented with 10% heat-inactivated fetal bovine serum and cultured in 200 μl aliquots in flat bottom culture plates until visible colonies were detected. They were then transferred to larger wells until the cell lines were established.

| Substance | CPM ± S.D. ([1]; 10 μg/ml) [CPM] | CPM ± S.D. ([1]; 30 μg/ml) [CPM] | CPM ± S.D. ([1]; 100 μg/ml) [CPM] | T cell reactivity [4] | T cell response [4] | T cell response, Group II peptides [5] | also measured |
| --- | --- | --- | --- | --- | --- | --- | --- |
| DP I-8: Der p I peptide (IKDLDAFRHYDGTRIIQRDNGYQPNY) | 1439 ± 32 | 1045 ± 32 | 2272 ± 40 |  |  |  | T cell reactivity [2]: significant regions of T cell reactivity; T cell response to Der p I peptides [3]: respond significantly |
| DP II-8: Der p II peptide (DIKYTWNVPKIAPKSENVVVTVKVMG) |  |  |  | significant T cell reactivity | responds well |  |  |
| DP II-9: Der p II peptide (VVTVKVMGDDGVLACAIATHAKIRD) | 3970 ± 87 | 4464 ± 86 | 2237 ± 53 | significant T cell reactivity | responds well |  |  |
| DP II-20.6: Der p II peptide (DQVDVKDSANHEIKKVLVPGSHGSEP) |  |  |  |  |  |  | ranked sum of peptide responses ([4]; 30 patients, FIG. 17b): highest ranked sum |
| DP II-20: Der p II peptide (DQVDVKDCANHEIKKVLVPGCHGSEP) |  |  |  |  |  | positive T cell studies |  |
| DPII-8: printed among the modified forms; SEQ ID NO 171 in b126, probably DP II-20.8 (DQVDVKDCANHEIKKVLVPGCHGSEPK) |  |  |  |  |  | positive T cell studies |  |

— patent US5968526A, “T cell epitopes of the major allergens from Dermatophagoides (house dust mite)” (Immulogic Pharamaceutical Corporation, priority 1995, dated 1999)
